Here are results for 5 compounds from patent publication US11370766B2, “Sulfonyl amidine as indoleamine-2,3-dioxygenase inhibitor, and preparation method therefor and use thereof” (SHANGHAI LONGWOOD BIOPHARMACEUTICALS CO., LTD., priority 2016, dated 2022).

pIC50: −log10 of the molar value. Like-named read-outs stand apart in the source and are kept apart here.

One series has as its target T1, IDO1 (Homo sapiens, UniProt P14902).
T1 construct: purchased NTRC NTRC-hTDO-1K
The series can be described thus: IDO1 enzyme activity test (NFK Green). It counts as biochemical. The following applies: 10 nM IDO1, 100 uM L-tryptophan, NFK green fluorescence; read-out: IDO IC50. On the procedure:
1. IDO1 Enzyme Activity Test Method (NFK Green)
Content of research: the inhibitory effect of the compound on the activity of IDO1 enzyme was examined.
IDO assay kit (NTRC, Cat. No. NTRC-hTDO-1K), DMSO (Sigma, Cat. No. D2650), 384-well plate_compound dilution plate (Greiner, Cat. No. 781280), 384-well plate_test plate (Perkin Elmer, Cat. No. 6007299)
10 nM IDO1 was incubated with compound or DMSO at 23° C. for 30 minutes, and L-type tryptophan was added at a final concentration of 100 uM and reacted for 1.5 hours. NFK green was added and incubated at 37° C. for 4 hours, and fluorescence signal data (excitation band, 400/25; emission band, 510/20) was corrected with Envision. Data analysis and mapping was conducted by XLfit5 software.
The test compounds and the reference compound LW3018 were finally tested at concentrations ranging from […] to 0.51 nM, 3-fold gradient dilution, 10 concentrations, and two replicate wells.

The target in a further series is T2, IDO1 in Hela cells (Homo sapiens, UniProt P14902).
T2 construct: endogenous in cells; host or cells: Hela cells, IFN-gamma stimulated
The series can be described thus: IDO cytology test (LC-MS), kynurenine in IFN-gamma-stimulated Hela cells. It counts as cell-based. The following applies: interferon gamma 100 ng/mL, 20 h, kynurenine by LC/MS. From the text:
2. IDO Cytology Test Method (LC-MS)
Content of research: the inhibitory effect of the compound on the activity of IDO1 in Hela cells was examined.
RPMI 1640 (phenol red free) medium (Invitrogen Cat. No. 11835030), fetal bovine serum (Invitrogen Cat. No. 10099141), penicillin and streptomycin (Invitrogen Gibco Cat. No. 15140-122), recombinant human interference γ (R&D system, Cat. No. 285-IF-100). 5% (w/v) trichloroacetic acid (Alfa Aesar Cat. No. A11156), DMSO (Sigma, Cat. No. D2650), 96-well plate_compound dilution plate (Axygen, Cat. No. WIPP02280), 96-well plate_test plate (Greiner, Cat. No. 655090)
The test compounds and the reference compound LW3018 were finally tested at concentrations ranging from […] to 0.76 nM, 3-fold gradient dilution, 9 concentrations, and two replicate wells.
Hela cells were plated in 96-well cell culture plates at a number of 40,000 cells per well, and incubated with RPMI 1640 containing 10% fetal bovine serum for 5-6 hours. The diluted test compound and recombinant human interferon gammaa (final concentration at 100 ng/mL) were added to activate IDO1 expression. The cells were cultured in a 37° C. cell incubator which was enriched with 5% carbon dioxide for 20 hours, and the reaction was stopped with 5% trichloroacetic acid and incubated for 30 minutes at 50° C. After the cell culture solution was precipitated, the supernatant was sent to LC/MS to detect the content of kynurenine. Data analysis and mapping was conducted by XLfit5 software.

Series [1] has as its system mouse colorectal cancer CT26 transplanted tumor. The series can be described thus: In vivo efficacy test of mouse colorectal cancer CT26 transplanted tumor. On the procedure:
Example 5 In Vivo Efficacy Test of Mouse Colorectal Cancer CT26 Transplanted Tumor
Under sterile conditions, CT26 cells in the proliferative phase were harvested, cell concentration was adjusted after digestion, and inoculated into the right hind limb of the mouse. Each mouse was inoculated with 1×10^5 CT26 cells in an inoculation volume of 0.1 mL. Four days after the inoculation, the average tumor volume was close to 20-30 mm^3, and the mouse was administered in a randomized group. The day of administration was recorded as DO, and the negative control was given same amount of vehicle. Co-administration of LW 105-1-1 with Anti-CTLA4 antibody was also tested in this experiment. After the administration was started, the tumor long diameter and short diameter were measured 3 times per week.

A short description of series [2]: Pharmacokinetics of LW105-1-1 in mice. The following applies: plasma, male C57BL/6 mice; for AUC(0-t): male, C57BL/6, mouse; for MRT last: read-out: MRT0-last; for bioavailability: after dose standardization, read-out: F% (absolute bioavailability); for Cmax: read-out: Cmax (head printed as image). It counts as in vivo. The procedure: 18 male C57BL/6 mice were intragastrically or intravenously administered with compound LW105-1-1 (Table 3).
The preparation containing 5% DMA and 20% HPbCD aqueous solution as a solvent was administered by intravenous injection, and a preparation containing a solution comprising 5% DMA, 20% HPbCD and 0.1% CREMOPHOR EL as a solution was intragastrically administered. The animal strain was male C57BL/6 mice. Prior to the animal experiment, all animals were fasted and fed 4 hours after dosing; all animals were given free access to water.
Intravenous administration group: before administration, 0.083, 0.25, 0.5, 1, 2, 4, 8 and 24 hours after.
Oral administration group: before administration, 0.25, 0.5, 1, 2, 4, 8 and 24 hours after
Whole blood samples (0.03 mL) were collected from the saphenous vein at the indicated time (or other suitable blood collection sites), and all blood samples were added to a plastic centrifuge tube pre-filled with K2-EDTA anticoagulant and labeled. After the blood sample was collected, centrifuged for 10 minutes under 2 to 8° C. at 3000 g, and the supernatant plasma was aspirated, and quickly placed in dry ice, and kept at −20° C. or lower for LC-MS/MS analysis.
The concentrations of all samples were analyzed using LC-MS/MS. Plasma mean concentrations were processed using a non-compartmental model of WinNonlin™ Version 6.3 (Pharsight, Mountain View, Calif.) pharmacokinetic software, and pharmacokinetic parameters were calculated by linear logarithmic trapezoidal method.

T1 sequence (P14902 whole entry): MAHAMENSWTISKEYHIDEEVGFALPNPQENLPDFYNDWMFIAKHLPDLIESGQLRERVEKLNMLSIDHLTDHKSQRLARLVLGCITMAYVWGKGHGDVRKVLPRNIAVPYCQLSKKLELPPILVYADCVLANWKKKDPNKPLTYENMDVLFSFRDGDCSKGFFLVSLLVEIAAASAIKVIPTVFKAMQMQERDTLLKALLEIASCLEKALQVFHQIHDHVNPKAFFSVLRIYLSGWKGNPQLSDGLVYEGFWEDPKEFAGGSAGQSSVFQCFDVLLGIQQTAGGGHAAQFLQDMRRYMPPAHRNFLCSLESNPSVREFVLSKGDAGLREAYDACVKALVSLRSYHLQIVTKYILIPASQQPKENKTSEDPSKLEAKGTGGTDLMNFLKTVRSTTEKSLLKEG
T2 sequence (P14902 whole entry): as above

The term pIC50 denotes the negative decadic logarithm of the IC50, by convention in mol/L. By AUC(0-t) is commonly meant the area under the concentration-time curve up to a stated or last time point. The low end stands for low exposure, the high end for high exposure. Usually AUC(0-inf) stands for the area under the concentration-time curve extrapolated to infinity. The clearance is the rate of elimination divided by the concentration. High values mean a high capacity for elimination, low ones a low capacity for elimination. A word on the Tmax: it is the time from dosing to the highest level. A word on the bioavailability: it is dose-corrected exposure relative to a reference, in per cent. As usually defined, the Cmax is the peak of the concentration-time curve. For the compound `CS(=N)(=O)NCCNc1nonc1C(=NO)Nc1ccc(F)c(Br)c1` (racemic) [LW105-1-1], the pIC50 at IDO1 was 7.65; at IDO1 in Hela cells it was 7.94. For the same compound, in series [1] (mouse CT26 model, 300 mg/kg oral twice a day), the tumor inhibition rate is 40.6%. Moreover, the anti-tumor growth effect entry in series [1] (mouse CT26 model, 30, 100, 300 mg/kg oral) was “dose-dependent anti-tumor growth effect”. Further, the AUC(0-t) in series [2] (iv, 3 mg/kg, intravenous 3 mg/kg) worked out at 1.43 µg·h/mL; in series [2] (po, 30 mg/kg, oral gavage 30 mg/kg), 10.1 µg·h/mL; in series [2] (po, 100 mg/kg, oral gavage 100 mg/kg) it was 39.4 µg·h/mL. For the same compound, the half-life is 0.688 h in series [2] (mouse, 3 mg/kg, heading: T1/2, intravenous 3 mg/kg); 2.7 h in series [2] (mouse, oral gavage 30 mg/kg, read-out: T1/2 (converted)); 2.11 h in series [2] (mouse, oral gavage 100 mg/kg, read-out: T1/2 (converted)). The AUC(0-inf) was determined as 1.45 µg·h/mL in series [2] (mouse, intravenous 3 mg/kg); 10.1 µg·h/mL in series [2] (mouse, oral gavage 30 mg/kg); 39.3 µg·h/mL in series [2] (mouse, oral gavage 100 mg/kg). This compound also yielded a C0 in series [2] (mouse, intravenous 3 mg/kg) of 2.56 µg/mL. In series [2] (mouse, intravenous 3 mg/kg), this compound came in with a clearance of 2.07 L/h/kg. Further, the MRT last in series [2] (mouse, intravenous 3 mg/kg) turned out to be 0.904 h; in series [2] (mouse, oral gavage 30 mg/kg) it was 3.11 h; in series [2] (mouse, oral gavage 100 mg/kg), 1.99 h. In addition, the Vd in series [2] (mouse, intravenous 3 mg/kg, read-out: steady-state volume (Vdss)) is 1.87 L/kg. In addition, the time of peak concentration (Tmax) in series [2] (mouse, oral gavage 30 mg/kg) is 0.5 h; in series [2] (mouse, oral gavage 100 mg/kg), 0.25 h. Also, the bioavailability in series [2] (mouse, oral gavage 30 mg/kg) worked out at 69.9%; in series [2] (mouse, oral gavage 100 mg/kg), 81.4%. For the same compound, the Cmax in series [2] (mouse, oral gavage 30 mg/kg) worked out at 4.81 µg/mL; in series [2] (mouse, oral gavage 100 mg/kg), 20.7 µg/mL.
Take `CCS(=N)(=O)NCCNc1nonc1C(=NO)Nc1ccc(F)c(Br)c1` (stereo not drawn) [LW105-1-2]: the pIC50 at IDO1 is 7.60; at IDO1 in Hela cells, 7.81.
`CC(C)S(=N)(=O)NCCNc1nonc1C(=NO)Nc1ccc(F)c(Br)c1` (stereo not drawn) [LW105-1-3]: the negative-log IC50 (pIC50) at IDO1 is 7.71; on IDO1 in Hela cells, 7.90.
On to `N=S(=O)(NCCNc1nonc1C(=NO)Nc1ccc(F)c(Br)c1)C1CC1` (stereo not drawn) [LW105-1-4], for which the values for the negative logarithm of the IC50 (pIC50) on IDO1 and against IDO1 in Hela cells were 7.53 and 8.14, respectively.
As to `CS(=N)(=O)NCCCNc1nonc1C(=NO)Nc1ccc(F)c(Br)c1` (stereo not drawn) [LW105-1-11], the pIC50 at IDO1 is 7.58; against IDO1 in Hela cells it was 7.95.
